This is an account of results in US7879881B2, “Piperidinyl compounds that selectively bind integrins” (Janssen Pharmaceutica NV, priority 2002, dated 2011).

Read-outs that look alike come from different tables or passages of the source. Bounds are passed on as bounds.

One experiment concerns the target GP IIb/IIIa (Homo sapiens, UniProt P05106+P08514). Briefly: In Vitro Solid Phase Purified GP IIb/IIIa Binding Assay (biotinylated fibrinogen). To be noted: biotinylated fibrinogen binding to immobilized purified GP IIb/IIIa, mean ± spread. The method in brief:
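Purified GP IIb/IIIa coated overnight at 4° C, blocked with 5% BSA, then incubated with test compound and biotinylated fibrinogen for 2-4 h at RT in modified Tyrodes buffer. Bound fibrinogen detected with avidin-biotin HRP complex and o-phenylenediamine/H2O2 (citrate/phosphate pH 5.3), stopped with 2 N H2SO4.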

The next experiment concerns the target T1, human purified αVβ5 (Homo sapiens, UniProt P06756+P18084).
T1 construct: purchased Chemicon International, Inc
The experiment in a line: In Vitro Solid Phase Purified αcβ5 Binding Assay (vitronectin/αVβ5). To be noted: vitronectin binding to immobilized purified human αVβ5, mean ± spread. The method in brief: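 Purified human integrin immobilized at 1 μg/ml in Tris buffer with Ca2+, Mg2+, Mn2+ and NaCl, then BSA-blocked. Compounds added just before 2 nM vitronectin, 3 h at 37 °C. Bound vitronectin detected by anti-vitronectin antibody with biotin/peroxidase (ABC) detection at 490 nm.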

In the next experiment the target is T2, Human αvβ3 (Homo sapiens, UniProt P05106+P06756).
T2 construct: purchased Chemicon International Inc., Temecula, Calif
T2 sequence (P06756 31-889 limits assumed): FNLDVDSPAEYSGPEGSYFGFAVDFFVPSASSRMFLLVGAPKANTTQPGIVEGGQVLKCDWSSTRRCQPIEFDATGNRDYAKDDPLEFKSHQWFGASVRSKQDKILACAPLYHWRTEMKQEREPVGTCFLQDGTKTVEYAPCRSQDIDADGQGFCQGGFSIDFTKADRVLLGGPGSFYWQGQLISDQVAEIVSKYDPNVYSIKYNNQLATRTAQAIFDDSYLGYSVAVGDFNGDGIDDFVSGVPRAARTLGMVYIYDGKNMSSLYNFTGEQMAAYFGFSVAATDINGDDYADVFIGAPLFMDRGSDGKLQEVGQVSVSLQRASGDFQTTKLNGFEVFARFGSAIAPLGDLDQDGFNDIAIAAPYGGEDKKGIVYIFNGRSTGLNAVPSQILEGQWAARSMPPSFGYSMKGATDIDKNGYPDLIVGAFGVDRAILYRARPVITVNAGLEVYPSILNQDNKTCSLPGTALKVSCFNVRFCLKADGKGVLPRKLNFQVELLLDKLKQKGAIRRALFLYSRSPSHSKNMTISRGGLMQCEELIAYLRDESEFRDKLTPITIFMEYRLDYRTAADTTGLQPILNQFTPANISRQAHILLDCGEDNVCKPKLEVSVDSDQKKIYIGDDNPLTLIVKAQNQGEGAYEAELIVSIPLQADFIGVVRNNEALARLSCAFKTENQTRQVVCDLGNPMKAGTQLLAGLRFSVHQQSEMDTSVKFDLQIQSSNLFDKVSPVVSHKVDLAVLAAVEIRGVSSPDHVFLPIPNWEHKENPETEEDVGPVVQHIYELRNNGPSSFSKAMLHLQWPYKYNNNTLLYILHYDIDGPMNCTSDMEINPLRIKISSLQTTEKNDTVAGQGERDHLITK
T2 sequence (P06756 891-1048 partner limits assumed): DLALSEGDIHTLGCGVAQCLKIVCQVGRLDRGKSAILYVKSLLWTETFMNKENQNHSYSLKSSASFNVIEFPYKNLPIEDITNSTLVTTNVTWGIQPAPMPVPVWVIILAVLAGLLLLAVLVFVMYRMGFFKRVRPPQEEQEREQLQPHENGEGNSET
T2 sequence (P05106 27-788): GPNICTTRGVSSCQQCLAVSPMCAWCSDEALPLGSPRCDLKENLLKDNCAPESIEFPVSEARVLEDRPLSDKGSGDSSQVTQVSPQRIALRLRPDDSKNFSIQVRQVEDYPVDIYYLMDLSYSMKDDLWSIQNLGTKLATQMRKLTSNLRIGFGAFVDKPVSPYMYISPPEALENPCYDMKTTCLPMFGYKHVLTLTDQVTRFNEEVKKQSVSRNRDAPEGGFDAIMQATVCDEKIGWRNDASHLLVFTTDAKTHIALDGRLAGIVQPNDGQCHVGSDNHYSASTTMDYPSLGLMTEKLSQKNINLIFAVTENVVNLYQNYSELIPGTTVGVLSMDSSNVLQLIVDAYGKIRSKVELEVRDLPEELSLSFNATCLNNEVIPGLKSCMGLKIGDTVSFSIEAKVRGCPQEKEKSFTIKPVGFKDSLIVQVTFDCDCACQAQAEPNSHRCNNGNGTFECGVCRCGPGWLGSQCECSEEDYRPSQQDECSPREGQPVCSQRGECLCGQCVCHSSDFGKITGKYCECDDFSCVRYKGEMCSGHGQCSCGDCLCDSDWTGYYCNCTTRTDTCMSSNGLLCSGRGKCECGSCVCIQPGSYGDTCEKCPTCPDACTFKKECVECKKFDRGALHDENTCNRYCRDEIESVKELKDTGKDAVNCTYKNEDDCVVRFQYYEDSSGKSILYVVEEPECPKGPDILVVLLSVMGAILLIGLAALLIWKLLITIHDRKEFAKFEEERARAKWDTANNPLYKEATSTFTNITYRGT
The experiment in a line: In Vitro Solid Phase Purified αvβ3 Binding Assay (vitronectin/αvβ3). To be noted: vitronectin binding to immobilized purified human αvβ3, mean ± spread. The essentials:
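Purified human αvβ3 immobilized at 1 μg/ml in Tris buffer with Ca, Mg and Mn; compounds competed with 2 nM vitronectin for 3 h at 37 °C. Bound vitronectin detected by anti-vitronectin antibody and peroxidase ABC, absorbance at 490 nm.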

T1 sequence (P06756 31-889 limits assumed): as the sequence (P06756 31-889 limits assumed) above
T1 sequence (P06756 891-1048 partner limits assumed): as the sequence (P06756 891-1048 partner limits assumed) above
T1 sequence (P18084 24-799): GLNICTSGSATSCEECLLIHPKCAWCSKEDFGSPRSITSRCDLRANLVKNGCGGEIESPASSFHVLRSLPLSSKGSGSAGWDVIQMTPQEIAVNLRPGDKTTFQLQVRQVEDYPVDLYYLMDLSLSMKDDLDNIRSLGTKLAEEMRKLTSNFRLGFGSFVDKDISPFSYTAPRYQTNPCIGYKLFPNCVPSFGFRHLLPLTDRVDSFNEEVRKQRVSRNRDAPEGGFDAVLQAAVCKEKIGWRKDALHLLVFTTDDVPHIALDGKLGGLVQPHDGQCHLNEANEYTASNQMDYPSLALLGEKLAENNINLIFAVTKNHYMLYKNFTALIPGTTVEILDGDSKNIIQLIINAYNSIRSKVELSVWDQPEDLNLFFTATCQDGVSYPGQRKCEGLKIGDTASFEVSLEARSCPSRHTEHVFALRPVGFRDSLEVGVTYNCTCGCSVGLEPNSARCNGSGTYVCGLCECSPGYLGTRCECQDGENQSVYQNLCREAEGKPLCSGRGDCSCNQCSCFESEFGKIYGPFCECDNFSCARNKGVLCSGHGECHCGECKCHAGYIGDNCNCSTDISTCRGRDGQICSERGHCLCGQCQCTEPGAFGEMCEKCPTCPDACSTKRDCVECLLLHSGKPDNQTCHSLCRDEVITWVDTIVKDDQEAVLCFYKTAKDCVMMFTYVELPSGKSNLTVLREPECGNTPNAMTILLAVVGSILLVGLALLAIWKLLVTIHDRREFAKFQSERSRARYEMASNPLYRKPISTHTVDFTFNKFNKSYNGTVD
Sequence of GP IIb/IIIa (P08514 32-887 limits assumed): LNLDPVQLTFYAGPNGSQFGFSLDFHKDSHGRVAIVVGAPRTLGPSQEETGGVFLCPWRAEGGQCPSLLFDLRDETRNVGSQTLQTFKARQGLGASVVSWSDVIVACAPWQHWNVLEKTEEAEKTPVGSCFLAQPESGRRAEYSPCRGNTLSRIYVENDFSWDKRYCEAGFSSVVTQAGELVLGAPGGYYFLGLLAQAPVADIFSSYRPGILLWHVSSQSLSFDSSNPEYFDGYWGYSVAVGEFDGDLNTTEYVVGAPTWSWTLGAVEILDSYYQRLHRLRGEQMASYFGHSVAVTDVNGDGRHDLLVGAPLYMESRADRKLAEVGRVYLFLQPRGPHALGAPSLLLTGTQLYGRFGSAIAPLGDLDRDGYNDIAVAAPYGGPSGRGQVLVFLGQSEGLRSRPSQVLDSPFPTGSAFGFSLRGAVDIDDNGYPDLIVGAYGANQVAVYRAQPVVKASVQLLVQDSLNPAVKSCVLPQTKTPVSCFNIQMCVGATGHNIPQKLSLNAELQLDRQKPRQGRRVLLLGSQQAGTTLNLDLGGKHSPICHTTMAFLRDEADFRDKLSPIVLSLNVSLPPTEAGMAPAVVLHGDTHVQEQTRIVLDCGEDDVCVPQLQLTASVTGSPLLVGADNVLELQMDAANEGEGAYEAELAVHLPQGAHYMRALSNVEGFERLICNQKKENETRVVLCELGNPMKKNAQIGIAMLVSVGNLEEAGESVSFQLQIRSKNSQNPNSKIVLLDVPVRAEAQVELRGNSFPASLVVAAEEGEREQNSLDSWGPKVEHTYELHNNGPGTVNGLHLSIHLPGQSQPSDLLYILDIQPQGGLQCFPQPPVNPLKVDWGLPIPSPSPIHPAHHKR
Sequence of GP IIb/IIIa (P08514 891-1039 partner limits assumed): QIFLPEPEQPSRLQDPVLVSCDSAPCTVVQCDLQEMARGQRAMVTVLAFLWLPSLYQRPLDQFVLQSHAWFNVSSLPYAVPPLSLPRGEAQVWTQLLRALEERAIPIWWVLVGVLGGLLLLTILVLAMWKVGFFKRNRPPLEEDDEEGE
Sequence of GP IIb/IIIa (P05106 27-788): as the sequence (P05106 27-788) above

For `O=C(O)CC(CC1CCN(C(=O)CCc2ccc3c(n2)NCCC3)CC1)c1ccc2c(c1)OCC2` (single isomer, unassigned) [Cpd 36b, 3-(2,3-Dihydro-benzofuran-6-yl)-4-[1-(3-5,6,7,8-tetrahydro-[1,8]naphthyridin-2-yl-propionyl)-piperidin-4-yl]-butyric acid], the IC50 at GP IIb/IIIa (read-out: αIIbβ3 IC50) is over 50 µM; at human purified αVβ5 (read-out: αvβ5 IC50) it was 0.129 µM; on Human αvβ3 (read-out: αvβ3IC50), 0.084 µM.
Take `O=C(O)CC(C1CCN(C(=O)CCCc2ccc3c(n2)NCCC3)CC1)C1CNc2ccccc2C1` (stereo not drawn) [Cpd 5, 1,2,3,4-Tetrahydro-β-[1-[1-oxo-4-(5,6,7,8-tetrahydro-1,8-naphthyridin-2-yl)butyl]-4-piperidinyl]-3-quinolinepropanoic acid]: the IC50 came out at 14.8 ± 0.68 µM on GP IIb/IIIa (αIIbβ3 IC50 (uM)), 0.261 ± 0.0569 µM on human purified αVβ5 (αvβ5 IC50 (uM)) and 0.0037 ± 0.0014 µM on Human αvβ3 (αvβ3IC50 (uM)).
On to `COc1ccc(C(CCC2CCN(C(=O)CCCNc3ccccn3)CC2)CC(=O)O)cn1` (stereo not drawn) [Cpd 25, 6-methoxy-β-[2-[1-[1-oxo-4-(2-pyridinylamino)butyl]-4-piperidinyl]ethyl]-3-pyridinepropanoic acid], for which the IC50 on GP IIb/IIIa (read-out: αIIbβ3 IC50) turned out to be 8.67 ± 1.72 µM; on human purified αVβ5 (read-out: αvβ5 IC50), 0.773 ± 0.118 µM; on Human αvβ3 (read-out: αvβ3IC50), 0.0456 ± 0.0066 µM.
The matching figures for `O=C(O)CC(CC1CCN(C(=O)CCc2ccc3c(n2)NCCC3)CC1)c1ccc(Oc2ccccc2)cc1` (stereo not drawn) [Cpd 43, 1-[1-oxo-3-(5,6,7,8-tetrahydro-1,8-naphthyridin-2-yl)propyl]-β-(4-phenoxyphenyl)-4-piperidinebutanoic acid]: 28.8 ± 15.8 µM, 0.222 ± 0.0885 µM and 0.0079 ± 0.0007 µM.
The matching figures for `O=C(O)CC(CC1CCN(C(=O)CCc2ccc3c(n2)NCCC3)CC1)c1ccc2c(c1)CCO2` (stereo not drawn) [Cpd 46, β-(2,3-dihydro-5-benzofuranyl)-1-[1-oxo-3-(5,6,7,8-tetrahydro-1,8-naphthyridin-2-yl)propyl]-4-piperidinebutanoic acid]: 13.6 ± 1.33 µM, 0.0659 ± 0.0171 µM and 0.0035 ± 0.0006 µM.
As for `CNc1cccc(C(CC(=O)O)CC2CCN(C(=O)CCc3ccc4c(n3)NCCC4)CC2)c1` (racemic) [Cpd 79, 3-(3-Methylamino-phenyl)-4-[1-(3-5,6,7,8-tetrahydro-[1,8]naphthyridin-2-yl-propionyl)-piperidin-4-yl]-butyric acid], the IC50 on GP IIb/IIIa (read-out: αIIbβ3 IC50) worked out at 40.2 µM; at human purified αVβ5 (read-out: αvβ5 IC50), 0.025 ± 0.006 µM; on Human αvβ3 (read-out: αvβ3IC50), 0.0035 ± 0.0015 µM.
Taken in the same sequence, the figures for `O=C(O)CC(CCC1CCN(C(=O)CCCNc2ccccn2)CC1)c1cnc2ccccc2c1` (stereo not drawn) [Cpd 22, β-[2-[1-[1-oxo-4-(2-pyridinylamino)butyl]-4-piperidinyl]ethyl]-3-quinolinepropanoic acid] were 0.43 ± 0.07 µM, 0.195 µM and 0.0046 ± 0.0008 µM.
The matching figures for `O=C(O)CC(CC1CCN(C(=O)CCc2ccc3c(n2)NCCC3)CC1)c1cccs1` (racemic) [Cpd 63]: 10.2 ± 6.41 µM, 0.007 ± 0.0008 µM and 0.0018 ± 0.0008 µM.
Taken in the same sequence, the figures for `O=C(O)CC(c1cnc2c(c1)CCCC2)C1CCN(C(=O)CCCc2ccc3c(n2)NCCC3)CC1` (single isomer, unassigned) [Cpd 58b, 5,6,7,8-Tetrahydro-β-[1-[1-oxo-4-(5,6,7,8-tetrahydro-1,8-naphthyridin-2-yl)butyl]-4-piperidinyl]-3-quinolinepropanoic acid] were 35.5 µM, 0.576 ± 0.149 µM and 0.083 ± 0.02 µM.
`CCNc1cccc(C(CC(=O)O)CC2CCN(C(=O)CCc3ccc4c(n3)NCCC4)CC2)c1` (racemic) [Cpd 78, 3-(3-Ethylamino-phenyl)-4-[1-(3-5,6,7,8-tetrahydro-[1,8]naphthyridin-2-yl-propionyl)-piperidin-4-yl]-butyric acid]: the IC50 was determined as 24.7 µM on GP IIb/IIIa (read-out: αIIbβ3 IC50), 0.026 ± 0.003 µM on human purified αVβ5 (read-out: αvβ5 IC50) and 0.0057 ± 0.0001 µM at Human αvβ3 (read-out: αvβ3IC50).
The matching figures for `O=C(O)CC(CC1CCN(C(=O)CCc2ccc3c(n2)NCCC3)CC1)C1CNc2ccccc2C1` (single isomer, unassigned) [Cpd 19-1, 1,2,3,4-tetrahydro-β-[[1-[1-oxo-3-(5,6,7,8-tetrahydro-1,8-naphthyridin-2-yl)propyl]-4-piperidinyl]methyl]-3-quinolinepropanoic acid]: over 50 µM, 1.12 µM and 0.0367 µM.
Take `COc1ccc(C(CCC2CCN(C(=O)c3cccc(NC4=NCC(O)CN4)c3)CC2)CC(=O)O)cn1` (stereo not drawn) [Cpd 10, 6-Methoxy-β-[2-[1-[3-[(1,4,5,6-tetrahydro-5-hydroxy-2-pyrimidinyl)amino]benzoyl]-4-piperidinyl]ethyl]-3-pyridinepropanoic acid]: the IC50 on GP IIb/IIIa (read-out: αIIbβ3 IC50) worked out at 1.67 µM; on human purified αVβ5 (read-out: αvβ5 IC50) it was 0.0335 ± 0.0075 µM; at Human αvβ3 (read-out: αvβ3IC50), 0.0024 ± 0.0013 µM.
For `O=C(O)CC(CC1CCN(C(=O)CCc2ccc3c(n2)NCCC3)CC1)c1cnc2c(c1)CCCC2` (racemic) [Cpd 57, 5,6,7,8-tetrahydro-β-[[1-[1-oxo-3-(5,6,7,8-tetrahydro-1,8-naphthyridin-2-yl)propyl]-4-piperidinyl]methyl]-3-quinolinepropanoic acid], the IC50 on GP IIb/IIIa (αIIbβ3 IC50 (uM)) was determined as 3.04 ± 0.55 µM; at human purified αVβ5 (αvβ5 IC50 (uM)) it was 0.0109 ± 0.0042 µM; on Human αvβ3 (αvβ3IC50 (uM)), 0.0016 ± 0.0007 µM.
As for `O=C(O)CC(CC1CCN(C(=O)CCCc2ccc3c(n2)NCCC3)CC1)c1ccc2c(c1)OCO2` (stereo not drawn) [Cpd 26, β-(1,3-benzodioxol-5-yl)-1-[1-oxo-4-(5,6,7,8-tetrahydro-1,8-naphthyridin-2-yl)butyl]-4-piperidinebutanoic acid], the figures for the IC50 on GP IIb/IIIa (read-out: αIIbβ3 IC50), on human purified αVβ5 (read-out: αvβ5 IC50) and at Human αvβ3 (read-out: αvβ3IC50) were 5.92 µM, 0.5 µM and 0.0277 ± 0.0053 µM, respectively.
In the case of `O=C(O)CC(CC1CCN(C(=O)CCCc2ccc3c(n2)NCCC3)CC1)c1cnc2ccccc2c1` (stereo not drawn) [Cpd 29, β-[[1-[1-oxo-4-(5,6,7,8-tetrahydro-1,8-naphthyridin-2-yl)butyl]-4-piperidinyl]methyl]-3-quinolinepropanoic acid], the IC50 at GP IIb/IIIa (read-out: αIIbβ3 IC50) was found to be 1.74 ± 0.89 µM; at human purified αVβ5 (read-out: αvβ5 IC50) it was 0.119 ± 0.015 µM; at Human αvβ3 (read-out: αvβ3IC50), 0.0022 ± 0.0008 µM.
Taken in the same sequence, the figures for `O=C(O)CC(CCC1CCN(C(=O)c2cccc(NC3=NCC(O)CN3)c2)CC1)c1cnc2ccccc2c1` (stereo not drawn) [Cpd 49, β-[2-[1-[3-[(1,4,5,6-tetrahydro-5-hydroxy-2-pyrimidinyl)amino]benzoyl]-4-piperidinyl]ethyl]-3-quinolinepropanoic acid] were 0.16 ± 0.02 µM, 0.0895 ± 0.0255 µM and 0.0018 ± 0.0005 µM.
For the molecule `COc1ccc(C(CCC2CCN(C(=O)CCc3ccc4c(n3)NCCC4)CC2)CC(=O)O)cn1` (single isomer, unassigned) [Cpd 21b, 6-methoxy-β-[2-[1-[1-oxo-3-(5,6,7,8-tetrahydro-1,8-naphthyridin-2-yl)propyl]-4-piperidinyl]ethyl]-3-pyridinepropanoic acid], the IC50 at GP IIb/IIIa (read-out: αIIbβ3 IC50) stood at 1.97 µM; at human purified αVβ5 (read-out: αvβ5 IC50) it was 0.28 µM; on Human αvβ3 (read-out: αvβ3IC50), 0.405 µM.
Taken in the same sequence, the figures for `O=C(O)CC(CCC1CCN(C(=O)CCCNc2ccccn2)CC1)c1ccc2c(c1)OCO2` (stereo not drawn) [Cpd 23, β-(1,3-benzodioxol-5-yl)-1-[1-oxo-4-(2-pyridinylamino)butyl]-4-piperidinepentanoic acid] were 4.93 µM, 2.01 µM and 0.298 ± 0.146 µM.
Taken in the same sequence, the figures for `O=C(O)CC(CC1CCN(C(=O)CCc2ccc3c(n2)NCCC3)CC1)c1cc(F)cc(F)c1` (stereo not drawn) [Cpd 37, β-(3,5-difluorophenyl)-1-[1-oxo-3-(5,6,7,8-tetrahydro-1,8-naphthyridin-2-yl)propyl]-4-piperidinebutanoic acid] were over 50 µM, 0.0897 ± 0.0116 µM and 0.0158 ± 0.0043 µM.
